Data as given in ChEMBL document CHEMBL1138225, “Synthesis and structure-activity relationships of 3,8-diazabicyclo[4.2.0]octane ligands, potent nicotinic acetylcholine receptor agonists” (J Med Chem, 2006).
Calls of active or inactive are those of the source. The calls are words filed in the database; no cut-off is given here.

How the values were obtained:
[1] = molecular target: T1, Neuronal acetylcholine receptor; alpha4/beta2 (Homo sapiens, UniProt P17787+P43681); assay: Maximal agonist activity on human alpha-4-beta-2 ACHR expressed in HEK293 cells assessed as change in intracellular calcium concentration by FLIPR relative to nicotine; format: functional, cell-based
Homo sapiens = organism: Homo sapiens; assay: Selectivity for human alpha4beta2 ACHR over alpha-3-beta-4 ACHR; format: functional
[2] = molecular target: T2, Neuronal acetylcholine receptor; alpha3/beta4 (Homo sapiens, UniProt P30926+P32297); assay: Agonist activity at human alpha-3-beta-4 ACHR expressed in HEK293 cells assessed as change in intracellular calcium concentration by FLIPR; format: functional, cell-based
[3] = molecular target: T1, Neuronal acetylcholine receptor; alpha4/beta2; assay: Agonist activity at human alpha4beta2 ACHR expressed in HEK293 cells assessed as change in intracellular calcium concentration by FLIPR; format: functional, cell-based
[4] = molecular target: T2, Neuronal acetylcholine receptor; alpha3/beta4; assay: Maximal agonist activity at human alpha-3-beta-4 ACHR expressed in HEK293 cells assessed as change in intracellular calcium concentration by FLIPR relative to nicotine; format: functional, cell-based
[5] = molecular target: Neuronal acetylcholine receptor; alpha4/beta2 (Rattus norvegicus, UniProt P09483+P12390); assay: Displacement of [3H]cytisine from alpha-4-beta-2 ACHR in rat brain homogenate; format: tissue-based
Rattus norvegicus [6] = assay: Activity in rat formalin model measured as reduction in flinches at 6.2 umol/kg, ip; format: functional; design: scale not given: the % may be the effect or the level left
Rattus norvegicus [7] = assay: Induction of behavioral side effects in rat formalin model upto 19 umol/kg, […]; format: functional, organism-based
Rattus norvegicus [8] = assay: Activity in rat formalin model measured as reduction in flinches at 19 umol/kg, ip; format: functional
Rattus norvegicus [9] = organism: Rattus norvegicus; assay: Activity in rat formalin model measured as reduction in flinches; format: functional, organism-based

T1 sequence (P17787 whole entry): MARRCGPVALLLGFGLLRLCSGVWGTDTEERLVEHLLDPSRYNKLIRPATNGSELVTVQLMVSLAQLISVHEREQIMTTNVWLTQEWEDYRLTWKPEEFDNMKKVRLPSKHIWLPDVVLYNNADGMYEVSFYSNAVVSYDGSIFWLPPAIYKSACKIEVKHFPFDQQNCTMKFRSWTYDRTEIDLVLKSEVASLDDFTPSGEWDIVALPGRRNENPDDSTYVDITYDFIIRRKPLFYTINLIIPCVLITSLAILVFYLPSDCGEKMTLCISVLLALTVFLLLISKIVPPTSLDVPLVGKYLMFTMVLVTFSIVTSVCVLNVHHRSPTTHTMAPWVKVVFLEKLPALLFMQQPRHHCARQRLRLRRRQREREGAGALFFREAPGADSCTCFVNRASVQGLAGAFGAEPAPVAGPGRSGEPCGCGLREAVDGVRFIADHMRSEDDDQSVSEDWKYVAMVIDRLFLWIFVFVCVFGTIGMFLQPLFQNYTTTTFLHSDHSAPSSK
T1 sequence (P43681 whole entry): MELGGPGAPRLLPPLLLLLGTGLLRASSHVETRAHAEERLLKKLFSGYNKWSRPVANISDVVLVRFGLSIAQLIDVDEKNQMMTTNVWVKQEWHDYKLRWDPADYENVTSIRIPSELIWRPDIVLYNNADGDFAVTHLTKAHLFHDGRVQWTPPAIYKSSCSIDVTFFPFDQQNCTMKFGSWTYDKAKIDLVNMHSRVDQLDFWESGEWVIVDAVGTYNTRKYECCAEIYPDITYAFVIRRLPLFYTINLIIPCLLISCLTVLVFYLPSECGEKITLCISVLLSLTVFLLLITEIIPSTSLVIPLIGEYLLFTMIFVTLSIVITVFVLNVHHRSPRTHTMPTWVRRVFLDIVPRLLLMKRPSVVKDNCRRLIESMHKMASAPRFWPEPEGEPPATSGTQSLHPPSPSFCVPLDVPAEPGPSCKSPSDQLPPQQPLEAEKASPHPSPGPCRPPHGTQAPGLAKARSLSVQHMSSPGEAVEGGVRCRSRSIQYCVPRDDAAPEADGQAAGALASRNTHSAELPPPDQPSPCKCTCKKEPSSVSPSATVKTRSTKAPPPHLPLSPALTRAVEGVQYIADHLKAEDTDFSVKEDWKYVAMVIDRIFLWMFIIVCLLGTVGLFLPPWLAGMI
T2 sequence (P30926 whole entry): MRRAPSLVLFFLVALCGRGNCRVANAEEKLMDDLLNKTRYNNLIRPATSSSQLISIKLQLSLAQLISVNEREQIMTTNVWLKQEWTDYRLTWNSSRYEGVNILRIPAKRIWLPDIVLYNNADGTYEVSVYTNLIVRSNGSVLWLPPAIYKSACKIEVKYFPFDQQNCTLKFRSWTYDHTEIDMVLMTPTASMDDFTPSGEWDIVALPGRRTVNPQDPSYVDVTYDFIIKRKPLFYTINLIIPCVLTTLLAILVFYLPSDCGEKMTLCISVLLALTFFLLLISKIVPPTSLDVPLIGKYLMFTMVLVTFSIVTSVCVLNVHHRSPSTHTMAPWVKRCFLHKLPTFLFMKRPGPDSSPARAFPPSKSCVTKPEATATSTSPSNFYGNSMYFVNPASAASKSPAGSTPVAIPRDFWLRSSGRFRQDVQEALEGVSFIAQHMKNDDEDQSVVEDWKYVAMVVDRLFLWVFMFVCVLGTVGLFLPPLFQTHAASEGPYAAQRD
T2 sequence (P32297 whole entry): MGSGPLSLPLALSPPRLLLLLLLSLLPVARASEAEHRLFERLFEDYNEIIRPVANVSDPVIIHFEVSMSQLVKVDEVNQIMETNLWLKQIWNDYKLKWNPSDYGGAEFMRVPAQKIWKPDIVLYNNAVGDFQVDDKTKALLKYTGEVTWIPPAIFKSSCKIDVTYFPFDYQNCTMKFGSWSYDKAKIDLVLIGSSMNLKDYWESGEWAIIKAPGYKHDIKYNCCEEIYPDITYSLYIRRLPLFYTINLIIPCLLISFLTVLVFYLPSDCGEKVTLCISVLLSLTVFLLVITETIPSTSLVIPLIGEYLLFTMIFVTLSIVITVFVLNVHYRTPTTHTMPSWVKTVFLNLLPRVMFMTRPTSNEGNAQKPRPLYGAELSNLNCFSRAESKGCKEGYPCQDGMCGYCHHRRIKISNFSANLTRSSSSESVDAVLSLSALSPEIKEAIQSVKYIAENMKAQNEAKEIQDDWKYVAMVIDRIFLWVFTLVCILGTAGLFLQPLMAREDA
Neuronal acetylcholine receptor; alpha4/beta2 (Rattus norvegicus, UniProt P09483+P12390), sequence (P09483 whole entry): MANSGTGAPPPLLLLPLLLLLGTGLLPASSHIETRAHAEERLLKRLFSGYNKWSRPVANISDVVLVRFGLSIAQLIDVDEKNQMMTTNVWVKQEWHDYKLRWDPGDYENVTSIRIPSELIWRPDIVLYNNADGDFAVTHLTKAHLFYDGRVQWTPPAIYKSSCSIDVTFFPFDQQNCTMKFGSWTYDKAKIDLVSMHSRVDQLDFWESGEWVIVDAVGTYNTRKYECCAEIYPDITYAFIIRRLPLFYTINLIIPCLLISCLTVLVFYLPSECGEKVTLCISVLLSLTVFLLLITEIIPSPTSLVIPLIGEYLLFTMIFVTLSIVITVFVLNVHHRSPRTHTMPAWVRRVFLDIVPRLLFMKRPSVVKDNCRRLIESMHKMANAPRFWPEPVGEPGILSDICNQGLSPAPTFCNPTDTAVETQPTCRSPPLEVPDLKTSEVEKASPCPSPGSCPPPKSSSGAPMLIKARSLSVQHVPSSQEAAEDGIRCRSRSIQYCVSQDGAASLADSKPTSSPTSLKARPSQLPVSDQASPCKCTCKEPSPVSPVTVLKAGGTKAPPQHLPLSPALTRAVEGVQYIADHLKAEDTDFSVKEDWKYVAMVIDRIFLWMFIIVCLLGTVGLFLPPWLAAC
Neuronal acetylcholine receptor; alpha4/beta2 (Rattus norvegicus, UniProt P09483+P12390), sequence (P12390 whole entry): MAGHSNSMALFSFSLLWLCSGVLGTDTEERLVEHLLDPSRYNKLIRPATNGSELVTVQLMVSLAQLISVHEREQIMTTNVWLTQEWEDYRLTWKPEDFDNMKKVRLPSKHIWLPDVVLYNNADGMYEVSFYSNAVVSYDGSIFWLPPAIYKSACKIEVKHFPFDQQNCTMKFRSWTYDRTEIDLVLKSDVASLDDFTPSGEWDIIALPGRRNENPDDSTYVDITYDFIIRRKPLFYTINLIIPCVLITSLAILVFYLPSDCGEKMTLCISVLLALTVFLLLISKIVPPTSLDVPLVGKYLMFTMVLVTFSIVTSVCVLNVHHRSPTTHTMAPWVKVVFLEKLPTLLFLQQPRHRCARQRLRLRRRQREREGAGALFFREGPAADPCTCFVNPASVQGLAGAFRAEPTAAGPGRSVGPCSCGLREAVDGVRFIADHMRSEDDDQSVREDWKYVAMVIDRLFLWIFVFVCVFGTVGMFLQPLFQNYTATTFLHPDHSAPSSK

Clc1ccc(N2CC[C@H]3CN[C@H]3C2)cn1
Activity [1]: 114%
Ratio EC50 (Homo sapiens): 2
EC50 [2]: 29 nM
EC50 [3]: 13 nM
Activity [4]: 151%
Ki [5]: 0.019 nM

Clc1cc(N2C[C@H]3CCNC[C@H]32)cnc1Cl
Activity [1]: 127%
EC50 [2]: 339 nM
EC50 [3]: 176 nM
Activity [4]: 103%
Ki [5]: 0.3 nM

NC(=O)c1cc(N2C[C@H]3CCNC[C@H]32)cnc1Br
Activity [1]: 133%
EC50 [2]: 7460 nM
EC50 [3]: 340 nM
Activity [4]: 90%

c1cncc(N2CC[C@H]3CN[C@H]3C2)c1
Activity [1]: 171%
EC50 [2]: 48 nM
EC50 [3]: 71 nM
Activity [4]: 121%
Ki [5]: 0.035 nM

N#Cc1cncc(N2CC[C@H]3CN[C@H]3C2)c1
Activity [1]: 112%
EC50 [2]: 1000 nM
EC50 [3]: 1900 nM
Activity (Rattus norvegicus [6]): 80%
Activity [4]: 127%
Ki [5]: 0.12 nM

Brc1cc(N2CC[C@H]3CN[C@H]3C2)cnc1Br
Activity [1]: 209%
EC50 [2]: 8.2 nM
EC50 [3]: 7.8 nM
Activity (Rattus norvegicus [6]): 99%
Activity (Rattus norvegicus [7]): inactive
Activity [4]: 117%
Ki [5]: 0.014 nM

Clc1ccc(N2CC[C@@H]3CN[C@@H]3C2)nn1
Activity [1]: 129%
EC50 [2]: 394 nM
EC50 [3]: 359 nM
Activity (Rattus norvegicus [7]): Active
Activity [4]: 113%
Ki [5]: 2.7 nM

Clc1ccc(N2CC[C@@H]3CN[C@@H]3C2)cn1
Activity [1]: 130%
EC50 [2]: 25 nM
EC50 [3]: 24 nM
Activity [4]: 125%
Ki [5]: 0.032 nM

Cc1cncc(N2CC[C@@H]3CN[C@@H]3C2)c1
Activity [1]: 54%
EC50 [2]: 1400 nM
EC50 [3]: 650 nM
Activity (Rattus norvegicus [7]): inactive
Activity [4]: 87%
Ki [5]: 0.064 nM

Cc1cc(N2CC[C@H]3CN[C@H]3C2)cnc1Cl
Activity [1]: 207%
EC50 [2]: 7.2 nM
EC50 [3]: 7.2 nM
Activity [4]: 123%
Ki [5]: 0.031 nM

COc1cc(N2CC[C@H]3CN[C@H]3C2)cnc1Br
Activity [1]: 217%
EC50 [2]: 8 nM
EC50 [3]: 21 nM
Activity [4]: 120%
Ki [5]: 0.027 nM

N#Cc1cc(N2CC[C@H]3CN[C@H]3C2)cnc1Br
Activity [1]: 215%
EC50 [2]: 4.4 nM
EC50 [3]: 6.1 nM
Activity [4]: 133%
Ki [5]: 0.027 nM

N#Cc1cncc(N2C[C@H]3CCNC[C@H]32)c1
Activity [1]: 83%
EC50 [2]: 5560 nM
EC50 [3]: 1930 nM
Activity [4]: 71%
Ki [5]: 2.6 nM

O=[N+]([O-])c1ccc(N2CC[C@H]3CN[C@H]3C2)cn1
Activity [1]: 196%
EC50 [2]: 390 nM
EC50 [3]: 100 nM
Activity [4]: 119%
Ki [5]: 1.5 nM

N#Cc1cc(N2C[C@H]3CCNC[C@H]32)cnc1Br
Activity [1]: 157%
EC50 [2]: 238 nM
EC50 [3]: 172 nM
Activity [4]: 100%
Ki [5]: 0.3 nM

c1ncc(N2CC[C@H]3CN[C@H]3C2)cn1
Activity [1]: 181%
EC50 [2]: 108 nM
EC50 [3]: 350 nM
Activity [4]: 121%
Ki [5]: 0.04 nM

N#Cc1cncc(N2CC[C@@H]3CN[C@@H]3C2)c1
Activity [1]: 76%
EC50 [2]: 490 nM
EC50 [3]: 1900 nM
Activity (Rattus norvegicus [8]): inactive
Activity [4]: 116%
Ki [5]: 0.065 nM

Clc1cc(N2CC[C@@H]3CN[C@@H]3C2)cnc1Cl
Activity [1]: 79%
EC50 [2]: 110 nM
EC50 [3]: 82 nM
Activity (Rattus norvegicus [8]): 55%
Activity [4]: 111%
Ki [5]: 0.027 nM

Cc1cc(N2C[C@@H]3CCNC[C@@H]32)cnc1Cl
Activity [1]: 103%
EC50 [2]: 1910 nM
EC50 [3]: 76.1 nM
Activity (Rattus norvegicus [7]): Active
Activity (Rattus norvegicus [8]): inactive
Activity [4]: 91%
Ki [5]: 0.043 nM

CCOc1cncc(N2CC[C@@H]3CN[C@@H]3C2)c1
Activity [1]: 18%
EC50 [2]: 2800 nM
EC50 [3]: 1350 nM
Activity [4]: 86%
Ki [5]: 0.16 nM

Brc1cncc(N2CC[C@H]3CN[C@H]3C2)c1
Activity [1]: 148%
EC50 [2]: 76 nM
EC50 [3]: 150 nM
Activity [4]: 122%
Ki [5]: 0.024 nM

Brc1cncc(N2CC[C@@H]3CN[C@@H]3C2)c1 (single isomer, unassigned)
Activity [1]: 58%
EC50 [2]: 950 nM
EC50 [3]: 1000 nM
Activity [4]: 91%
Ki [5]: 0.053 nM

Clc1cc(N2C[C@@H]3CCNC[C@@H]32)cnc1Cl
Activity [1]: 60%
EC50 [2]: 4110 nM
EC50 [3]: 271 nM
Activity (Rattus norvegicus [7]): Active
Activity [4]: 69%

CCOc1cncc(N2CC[C@H]3CN[C@H]3C2)c1
Activity [1]: 116%
EC50 [2]: 124 nM
EC50 [3]: 620 nM
Activity [4]: 103%
Ki [5]: 0.052 nM

COc1cc(N2C[C@H]3CCNC[C@H]32)cnc1Br
Activity [1]: 120%
EC50 [2]: 202 nM
EC50 [3]: 200 nM
Activity [4]: 98%
Ki [5]: 0.085 nM

Cc1cc(N2C[C@H]3CCNC[C@H]32)cnc1Cl
Activity [1]: 142%
EC50 [2]: 298 nM
EC50 [3]: 134 nM
Activity (Rattus norvegicus [8]): 75%
Activity [4]: 103%
Ki [5]: 0.24 nM

c1cncc(N2C[C@@H]3CCNC[C@@H]32)c1
Activity [1]: 105%
EC50 [2]: 1700 nM
EC50 [3]: 410 nM
Activity (Rattus norvegicus [7]): Active
Activity [4]: 98%

COc1cncc(N2C[C@@H]3CCNC[C@@H]32)c1
Activity [1]: 44%
EC50 [2]: 63500 nM
EC50 [3]: 7690 nM
Activity [4]: 47%
Ki [5]: 4.4 nM

O=[N+]([O-])c1ccc(N2CC[C@@H]3CN[C@@H]3C2)cn1
Activity [1]: 114%
EC50 [2]: 830 nM
EC50 [3]: 110 nM
Activity (Rattus norvegicus [7]): Active
Activity [4]: 98%
Ki [5]: 2.4 nM

COc1ccc(N2CC[C@H]3CN[C@H]3C2)cn1
Activity [1]: 96%
EC50 [2]: 1100 nM
EC50 [3]: 2200 nM
Activity [4]: 88%
Ki [5]: 0.98 nM

c1cncc(N2CC[C@@H]3CN[C@@H]3C2)c1
Activity [1]: 112%
EC50 [2]: 260 nM
EC50 [3]: 330 nM
Activity [4]: 118%
Ki [5]: 0.059 nM

N/C(=N/O)c1cncc(N2CC[C@@H]3CN[C@@H]3C2)c1
Activity [1]: 194%
Activity [4]: 99%

N#Cc1cncc(N2C[C@@H]3CCNC[C@@H]32)c1
Activity [1]: 64%
EC50 [2]: 2560 nM
EC50 [3]: 2190 nM
Activity [4]: 91%
Ki [5]: 0.5 nM

COc1cncc(N2CC[C@@H]3CN[C@@H]3C2)c1
Activity [1]: 35%
EC50 [2]: 4500 nM
EC50 [3]: 2700 nM
Activity [4]: 86%
Ki [5]: 0.18 nM
Activity (Rattus norvegicus [9]): inactive

COc1cc(N2C[C@@H]3CCNC[C@@H]32)cnc1Br
Activity [1]: 65%
EC50 [2]: 2980 nM
EC50 [3]: 1690 nM
Activity [4]: 84%
Ki [5]: 1.4 nM

NC(=O)c1cc(N2C[C@@H]3CCNC[C@@H]32)cnc1Br
Activity [1]: 75%
EC50 [2]: 23300 nM
EC50 [3]: 1490 nM
Activity [4]: 73%
Ki [5]: 2.8 nM

c1cncc(N2C[C@H]3CCNC[C@H]32)c1
Activity [1]: 84%
EC50 [2]: 1540 nM
EC50 [3]: 1400 nM
Activity [4]: 97%

Clc1cc(N2CC[C@H]3CN[C@H]3C2)cnc1Cl
Activity [1]: 221%
EC50 [2]: 9.9 nM
EC50 [3]: 12 nM
Activity [4]: 132%
Ki [5]: 0.025 nM

Cc1cc(N2CC[C@@H]3CN[C@@H]3C2)cnc1Cl
Activity [1]: 90%
EC50 [2]: 71 nM
EC50 [3]: 47 nM
Activity (Rattus norvegicus [7]): inactive
Activity [4]: 103%
Ki [5]: 0.037 nM

COc1cncc(N2CC[C@H]3CN[C@H]3C2)c1
Activity [1]: 178%
EC50 [2]: 180 nM
EC50 [3]: 130 nM
Activity (Rattus norvegicus [7]): inactive
Activity [4]: 103%
Ki [5]: 0.038 nM
Activity (Rattus norvegicus [9]): Dose-dependent effect

Clc1ccc(N2C[C@H]3CCNC[C@H]32)cn1
Activity [1]: 102%
EC50 [2]: 1520 nM
EC50 [3]: 216 nM
Activity [4]: 93%
Ki [5]: 0.8 nM

c1ncc(N2CC[C@@H]3CN[C@@H]3C2)cn1
Activity [1]: 79%
EC50 [2]: 1020 nM
EC50 [3]: 4390 nM
Activity [4]: 106%
Ki [5]: 0.2 nM

Clc1ccc(N2CC[C@H]3CN[C@H]3C2)nn1
Activity [1]: 222%
EC50 [2]: 64.8 nM
EC50 [3]: 78.3 nM
Activity [4]: 128%
Ki [5]: 0.15 nM

COc1cc(N2CC[C@@H]3CN[C@@H]3C2)cnc1Br
Activity [1]: 40%
EC50 [2]: 160 nM
EC50 [3]: 360 nM
Activity [4]: 108%
Ki [5]: 0.069 nM

N#Cc1cc(N2C[C@@H]3CCNC[C@@H]32)cnc1Br
Activity [1]: 104%
EC50 [2]: 794 nM
EC50 [3]: 109 nM
Activity (Rattus norvegicus [7]): Active
Activity [4]: 88%
Ki [5]: 0.07 nM

COc1ccc(N2CC[C@@H]3CN[C@@H]3C2)cn1
Activity [1]: 54%
EC50 [2]: 2400 nM
EC50 [3]: 4980 nM
Activity [4]: 93%
Ki [5]: 2.7 nM

c1ncc(N2C[C@@H]3CCNC[C@@H]32)cn1 (single isomer, unassigned)
Activity [1]: 104%
EC50 [2]: 9940 nM
EC50 [3]: 8420 nM
Activity [4]: 93%
Ki [5]: 1.6 nM

Brc1cc(N2CC[C@@H]3CN[C@@H]3C2)cnc1Br
Activity [1]: 86%
EC50 [2]: 110 nM
EC50 [3]: 76 nM
Activity (Rattus norvegicus [8]): 26%
Activity [4]: 100%
Ki [5]: 0.024 nM

COc1cncc(N2C[C@H]3CCNC[C@H]32)c1
Activity [1]: 104%
EC50 [2]: 4360 nM
EC50 [3]: 1100 nM
Activity [4]: 88%
Ki [5]: 0.56 nM
